The text below walks through data of paper PMC11335512, “The first-in-class pro-apoptotic peptide PEP-010 is effective in monotherapy and in combination with paclitaxel on resistant ovarian adenocarcinoma cell models” (Frontiers in Pharmacology, 2024).

Where only a bound is given, the exact number is not on record here.

Type in all cases: cell-based
In experiment [1] the test system is IGROV1CDDP. The experiment can be described thus: MTT assay, IC50 determination of chemotherapies. Conditions: for IC50: MTT assay, 72 h treatment, IGROV1CDDP (cisplatin-resistant), mean ± SEM, three to six independent biological replicates. On the procedure:
(§1) The ovarian cell lines IGROV1, IGROV1CDDP, and IGROV1VCR were cultivated in RPMI 1640 Medium GlutaMAX with 10% FBS and 1% of pyruvate and glutamine. They were maintained at 5% CO2 and 37°C in a humidified atmosphere. All reagents are from Gibco® (Thermo Fisher Scientific, Carlsbad, CA, United States).
(§2) PEP-010 was first dissolved in 0.1% formic acid (10 mM) and then diluted in a cell culture medium at pH9 (to allow a full dissolution of the peptide). Experiments in similar conditions, but without the peptide, were conducted as negative controls. Staurosporine (Selleckchem, Houston, TX, United States) was used as a positive control at a concentration of 1 µM. Cells were collected or analyzed at the indicated time points. For combination conditions, the cells were treated with paclitaxel (Accord, London, United Kingdom) at the indicated concentrations for 72 h.
(§3) Here, 10,000 cells were seeded on 96-well plates in 100 µL of medium. The day after, the medium was replaced with fresh medium containing the appropriate drugs at the indicated concentrations: cisplatin (Mylan, Canonsburg, PA, United States), paclitaxel (Accord, London, United Kingdom), doxorubicin (Pfizer, New York, NY, United States), vincristine [Pfizer, New York, NY, United States)], and/or PEP-010. The plates were incubated at 37° in humidified air with 5% CO2 for 72 h. The MTT reagent (20 µL) was added at the end of the indicated time points, and plates were incubated for 2 h at 37°C. In addition, 100 µL of lysis buffer was added to each well. Subsequently, the plates were incubated for 2 h at 37°C, and the absorbance was measured at 570 nm (Tecan, Männedorf, CH).

Experiment [2] relates to IGROV1. Kind of experiment: MTT assay, IC50 determination of chemotherapies. The settings on record: Homo sapiens, IGROV-1, 72 h treatment, IGROV1 parental, three to six independent biological replicates. On the procedure:
as §1, §2, §3
(Formazan colour is commonly taken as a measure of viable cells.)

The subject of experiment [3] is IGROV1VCR. The experiment can be described thus: MTT assay, IC50 determination of chemotherapies alone or with PEP-010. The settings on record: for fold change (FC) vs. IC50 IGROV1: IC50 in IGROV1VCR over IC50 in IGROV1, MTT 72 h; for IC50: 72 h treatment, IGROV1VCR (vincristine-resistant, expresses MDR pumps), drug alone, mean ± SEM, three to six independent biological replicates. How it is done: as §1, §2, §3

Experiment [4] deals with IGROV1CDDP. The experiment can be described thus: DNA damage, γH2AX immunofluorescence. The settings on record: 48 h post-treatment with PEP-010, IGROV1CDDP; untreated control 15.8 ± 2.8; mean ± SEM, three biological replicates. How it is done: (§4) Cells were seeded on 12 mm coverslips placed in a 24-well plate (24 h, 37°C, and 5% CO2). Cells were treated with PEP-010 as previously described. At the indicated time point, cells were washed with 1X PBS and fixed in 4% paraformaldehyde (Euromedex, Souffelweyersheim, FR) in 1X PBS (10 min, RT), followed by three washes in 1X PBS. Cells were then permeabilized with 2% Triton X-100 (Euromedex, Souffelweyersheim, FR) in 1X PBS (10 min, RT) and then washed in 1X PBS. Cells were saturated with 0.5% BSA (Euromedex, Souffelweyersheim, FR) in 1X PBS (40 min, RT) and then stained with an anti-γH2AX Ser139 antibody (mouse, 1:200, from BioLegend #613402). Incubation with primary antibody (2 h, RT) was followed by three washes in 1X PBS and by incubation (1 h, RT) with a secondary antibody conjugated to Alexa Fluor […] goat anti-mouse (Thermo Fisher Scientific, Carlsbad, CA, United States), diluted 1:200. Coverslips were mounted on microscopy glass slides using a mounting medium containing DAPI (Sigma-Aldrich, Saint-Quentin-Fallavier, Cedex, France). Images were acquired using a fluorescence microscope (Zeiss Observer Z1). Images were analyzed using ImageJ software.

For experiment [5], the system named is IGROV1VCR. Kind of experiment: DNA damage, γH2AX immunofluorescence. Conditions: 48 h post-treatment with PEP-010, IGROV1VCR; untreated control 20.7 ± 1.7; mean ± SEM, three biological replicates. How it is done: as §4
Experiment [6] deals with ovarian adenocarcinoma cell models resistant to different chemotherapies. The experiment can be described thus: Cell death in monotherapy (Annexin-V/Propidium Iodide staining and flow cytometry). The settings on record: PEP-010 monotherapy; highest value stated in abstract, dose and cell line not stated there. How it is done: as §2
(§5) Cell death was assessed using Annexin V-APC and propidium iodide (PI) (BioLegend, San Diego, CA, United States) staining following the manufacturer’s instructions. Results were analyzed as previously described ([Debernardi et al., 2018]). A total of 10,000 events were analyzed using a C6 Accuri Cytometer (Becton-Dickinson, Franklin Lakes, NJ, United States), analysis was performed using integrated software, and Annexin V positive cells (PI positive and negative) were counted as apoptotic.
A general note: Flow cytometry measures light scatter and fluorescence of single cells or particles in a stream.

Experiment [7] concerns IGROV1CDDP. The experiment can be described thus: Apoptosis measurement, Annexin V/PI staining and FACS analysis. The settings on record: PEP-010 12.5 µM, 24 h post-treatment, untreated control 14.6 ± 1.2, mean ± SEM, three independent biological replicates. On the procedure:
as §2, §5

Experiment [8] relates to IGROV1. The experiment is described as above. The settings on record: PEP-010 12.5 µM, 24 h post-treatment, untreated control 11 ± 1.3, mean ± SEM, three independent biological replicates. On the procedure:
as §2, §5

Experiment [9] concerns IGROV1VCR. The experiment is described as above. How it is done:
as §2, §5

What is called IC50 is the midpoint of a concentration-inhibition curve. Take `CC(=O)O[C@H]1C(=O)[C@@]2(C)[C@H]([C@H](OC(=O)c3ccccc3)[C@]3(O)C[C@H](OC(=O)[C@H](O)[C@@H](NC(=O)c4ccccc4)c4ccccc4)C(C)=C1C3(C)C)[C@]1(OC(C)=O)CO[C@@H]1C[C@@H]2O` [Paclitaxel, paclitaxel]: the half-maximal inhibitory concentration (IC50) with IGROV1CDDP [1] turned out to be 500 nM; with IGROV1 [2] it was 750 nM; with IGROV1VCR [3] (MTT assay), 2900 nM. In addition, the “fold change (FC) vs. IC50 IGROV1” value in the experiment on IGROV1VCR [3] is 3.9.
In the case of `COc1cccc2c1C(=O)c1c(O)c3c(c(O)c1C2=O)C[C@@](O)(C(=O)CO)C[C@@H]3O[C@H]1C[C@H](N)[C@H](O)[C@H](C)O1` [Doxorubicin, doxorubicin], the 50% inhibitory concentration (IC50) is 500 nM in the experiment with IGROV1CDDP [1], 400 nM with IGROV1 [2] and over 10000 nM in the experiment with IGROV1VCR [3] (MTT assay).
On to “VKKKKIKAEIKIYVETLDDIFEQWAHSEDL [PEP-010]”, for which the “FC, reduction of the IC50 of paclitaxel (PTX alone vs. PTX + PEP-010)” value with IGROV1VCR [3] (MTT assay, 72 h, IGROV1VCR, PEP-010 25 µM) is reported as 2.2. The “% of γH2AX positive cells” value is recorded as 26.5 ± 3.1% with IGROV1CDDP [4] and 29.5 ± 2.6% with IGROV1VCR [5]. For the same compound, the “cell death in monotherapy, % of cells” value in [6] is on record as “up to 55%”. In addition, the “total % of Annexin V positive cells” value in the experiment on IGROV1CDDP [7] is 38.7 ± 8.5%; in the experiment with IGROV1 [8], 37.4 ± 1.9%; in the experiment with IGROV1VCR [9] (PEP-010 12.5 µM, 24 h post-treatment, IGROV1VCR, untreated control 12.6 ± 0.9, mean ± SEM, three independent biological replicates) it was 37 ± 4%. In addition, in the experiment on IGROV1VCR [9] (PEP-010 in combination with paclitaxel, stated in abstract, doses not given), the “apoptosis, % of cells, combination with paclitaxel” value is 87%.
`CC[C@]1(O)C[C@H]2CN(CCc3c([nH]c4ccccc34)[C@@](C(=O)OC)(c3cc4c(cc3OC)N(C=O)[C@H]3[C@@](O)(C(=O)OC)[C@H](OC(C)=O)[C@]5(CC)C=CCN6CC[C@]43[C@@H]65)C2)C1` [Vincristine, vincristine]: the IC50 in the experiment on IGROV1CDDP [1] was 900 nM; in the experiment with IGROV1 [2], 34 nM; in the experiment with IGROV1VCR [3] (MTT assay), 3300 nM. Moreover, the “fold change (FC) vs. IC50 IGROV1” value with IGROV1VCR [3] is given as 97.
Consider `N.N.[Cl][Pt][Cl]` [Cisplatin, cisplatin], for which the “fold change (FC) vs. IC50 IGROV1” value with IGROV1CDDP [1] (IC50 in IGROV1CDDP over IC50 in IGROV1, MTT 72 h) is 11.1; in the experiment on IGROV1VCR [3] it was 6.5. The concentration for half-maximal inhibition (IC50) with IGROV1CDDP [1] is 25700 nM; in the experiment on IGROV1VCR [3] (MTT assay) it was 15000 nM.
